What is called IC50 is the concentration needed to halve the response being measured.

Each structure is given as a SMILES string. Where two headings read alike, the source gives them in different places.

This experiment deals with RBL-2H3 cells. Put plainly: IgE-mediated RBL-2H3 cell degranulation model (β-hexosaminidase release), in vitro anti-allergic activity test. The experiment is classed as cell-based. Particulars: for Degranulation efficiency (%): RBL-2H3 cells, anti-DNP-IgE sensitized, DNP-BSA stimulated. The text has this:
Currently available mast cell lines are not suitable for in vitro subculturing, and thus it is difficult to obtain a large number of homogeneous cells for experimental research. The RBL-2H3 cell line is similar to mast cells in cell structure and degranulation mechanism, and more importantly, it is possible to realize a stable subculturing of the line. Thus, the RBL-2H3 cell line is usually used as an alternative model of mast cells in the studies on mast cell functions and further researches of allergic diseases.
In the present embodiment, an IgE-mediated RBL-2H3 cell model was employed to measure the degranulation efficiency of sensitized cells, followed by a calculation to obtain the inhibitory of the compound against the cell degranulation and to further obtain the anti-allergic activity of the compound.
This embodiment was conducted with the following four groups:
(1) negative control group (non-activated group);
(2) blank control group (DNP-BSA-activated group);
(3) positive control group (loratadine group); and
(4) compound group (the compound obtained in step (5) in Embodiment 1).
This embodiment was conducted as follows:
(1) Sensitizing the cells: The RBL-2H3 cells were collected with trypsinization, and added into 96-well plates, 100 μL in each well, followed by the addition of anti-DNP-IgE to a final concentration of 1 μg/mL to sensitize the cells, and incubated in an incubator overnight (37° C., 5% CO2).
(2) Pre-protection of the cells: In the negative control group, 5, μL of PBS and 95 μL of Tyrode's buffer solution were added to each sample. In the blank control group, 5 μL of DNP-BSA and 95 μL of Tyrode's buffer solution were added to each sample. In the positive control group, 5 μL of loratadine (of various concentrations) and 95 μL of Tyrode's buffer solution were added to each sample. In the compound group, 5 μL of the compound solution (in PBS, with a final concentration of 1.25, 0. 625, 0.3125, 0.15625, 0.078125, or 0.0390625 μg/mL) and 95 μL of Tyrode's buffer solution were added to each sample. After the addition of above reagents, 95 μL of the cells were then added to culture plates, and incubated for 1 hour.
(3) Stimulating the cells: In the negative control group, 5 μL of PBS was added to each sample. In the other three groups, 5 μL of DNP-BSA was added to a final concentration of 1 μg/mL to stimulate the RBL-2H3 cells, and incubated for 1 hour.
(4) Disintegration of the cells: The culture supernatants were collected, and then the Tyrode's buffer solution (containing 0.1% of Triton X-100) was added to the culture plates to disintegrate the cells so as to obtain lysate solutions.
(5) β-hexosaminidase activity measurement: The supernatants and the lysate solutions were added to 96-well plates for fluorescent assays, 25 μL in each well, followed by the addition of 100 μL of 1.2 mM 4-methylumbelliferyl-N-acetyl-β-d-glucosaminide to allow reaction at 37° C. for 30 minutes. Then the fluorescence (excitation wavelength: 360 nm, emission wavelength: 450 nm) of the solution in each well was measured using a microplate reader.
(6) Calculation of degranulation efficiency:
Degranulation efficiency was calculated through the following expression:
wherein, FS represent the fluorescence of supernatant, and FL represents the fluorescence of lysate solution.
(7) Calculation of inhibitory rate on allergy
Inhibitory rate was calculated with the following expression:
wherein DEB represents the degranulation efficiency of blank control group, DEC represents the degranulation efficiency of compound group and DEN represents the degranulation efficiency of negative control group.

[1] abbreviates: Rattus norvegicus, RBL-2H3, read-out: Inhibitory rate (%).

Regarding `COc1cc(O)cc2c1C(=O)c1c(cc3c(c1O)C1C=COC1O3)C2=O` (stereo not drawn) [Compound], the “inhibitory effect on mast cell degranulation” value (IgE-mediated RBL-2H3 cell model, result in words) is “strong inhibitory effect”. The “Degranulation efficiency (%)” value (compound 0.0390625 μg/mL) is on record as 52.86%; the “Degranulation efficiency (%)” value (compound 0.078125 μg/mL) is given as 48.53%; the “Degranulation efficiency (%)” value (compound 0.15625 μg/mL) is on record as 38.46%; the “Degranulation efficiency (%)” value (compound 0.3125 μg/mL) is listed as 35.61%; the “Degranulation efficiency (%)” value (compound 0.625 μg/mL) is recorded as 24.46%; the “Degranulation efficiency (%)” value (compound 1.25 μg/mL) was found to be 14.29%. Further, the 50% inhibitory concentration (IC50) (Rattus norvegicus, RBL-2H3) was determined as 1.87 µM. Under setting [1], the inhibition at 0.0390625 µg/mL is -15.2%. Also, the inhibition at 0.078125 µg/mL under setting [1] was -3.38%. Besides, the inhibition at 0.15625 µg/mL under setting [1] was 24.2%. The inhibition at 0.3125 µg/mL under setting [1] is 32.1%. Further, the inhibition at 0.625 µg/mL under setting [1] was 62.7%. In addition, the inhibition at 1.25 µg/mL under setting [1] stood at 90.6%.
For the compound `CCOC(=O)N1CCC(=C2c3ccc(Cl)cc3CCc3cccnc32)CC1` [loratadine, reference compound], for the setting “Rattus norvegicus, concentration of the compound when the inhibitory rate is 50%, RBL-2H3 degranulation, read-out: IC50”, the IC50 was 91.6 µM.

The record behind these values is patent US11142530B2, “Deep-sea fungus-derived anthraquinone compound and use thereof in preparing anti-allergic drugs” (Third Institute of Oceanography, Ministry of Natural …, priority 2019, dated 2021).
